Test results reported in patent US10934297B2, “5-heteroaryl substituted indazole-3-carboxamides and preparation and use thereof” (Samumed, LLC, priority 2018, dated 2021).
pEC50, pIC50: −log10 of the molar value.

Tests used:
[1] = tested on: primary human fibroblasts derived from IPF patients (LL29 cells); experiment: Inhibition of the fibrotic process: αSMA staining in TGF-β1 treated LL29 fibroblasts; type: cell-based; details: Homo sapiens, Fibroblast, 96 h; LL29 cells, TGF-β1 20 ng/mL, 4 days, % αSMA positive cells
Procedure, shortened: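 LL29 fibroblasts from IPF patients, in F12 medium with 1% FBS, treated with TGF-β1 plus compound; TGF-β1 with DMSO as positive control, DMSO alone as negative control. After 4 days' incubation, SYTOX green nucleic acid stain added at 1 μM final, 30 min at room temperature.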

IL-6 = IL-6 inhibition in LPS-stimulated human peripheral blood mononuclear cells (HTRF); type: cell-based; details: Homo sapiens, PBMC; for pEC50: huPBMCs, LPS 50 ng/mL, 22 hours, IL-6 HTRF; for inhibition at 10 µM: read-out: percent inhibition at 10 μM
Procedure, shortened: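 Fresh human PBMCs at 1×10e6 cells/mL in RPMI/1% FBS were stimulated with 50 ng/mL E. coli 0111:B4 LPS added 2 h after compound, then incubated 22 h at 37° C. Secreted IL-6 was measured by HTRF (665/620 nm ratio) after 3 h at room temperature. EC50 was taken from activity normalized to DMSO-treated cells.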

[2] = tested on: Wnt activity (Sp5-Luc reporter in SW480 cells); experiment: Screening assay for Wnt activity: Sp5-Luc reporter gene assay in SW480 colon carcinoma cells; type: cell-based, human; details: Homo sapiens, 36 to 48 hours
Procedure, shortened: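 SW480 colon carcinoma cells stably carrying a lentiviral luciferase reporter driven by an Sp5 promoter with eight TCF/LEF sites, plated at 4,000 cells/well in DMEM with 1% FBS. Compound exposure for 36–48 h at 37 °C, then luminescence read. Signals normalized to DMSO; EC50 from four-parameter nonlinear fit.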

[3] = tested on: SW480 colon carcinoma cells; experiment: Cell viability assay (CellTiter-Glo) in SW480 colon carcinoma cells; type: cell-based, human; details: Homo sapiens, 96 h, four days
Procedure, shortened: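 SW480 cells stably carrying an Sp5-promoter luciferase reporter were plated at 2,000 cells/well in DMEM with 1% FBS and treated with compound for four days at 37 °C. Viability was read as ATP luminescence with CellTiter-Glo after about 12 min; DMSO-treated wells served as controls.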

GSK3β kinase = GSK3β kinase (Homo sapiens (Human), UniProt P49841); experiment: GSK3β kinase assay (Ser/Thr 09 peptide Z-lyte FRET); type: biochemical; details: read-out: EC50 (method: IC50)
Procedure, shortened: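 Non-radioactive Z-lyte FRET read-out, kinase activity expressed as coumarin/fluorescein emission ratio. Compounds incubated with the reaction mixture one hour at room temperature in duplicate, then development buffer added for another hour. IC50 from non-linear regression of dose-response curves.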

DYRK1A kinase = DYRK1A kinase (Homo sapiens (Human), UniProt Q13627); experiment: DYRK1A kinase assay (Ser/Thr 18 peptide Z-lyte FRET); type: biochemical; details: read-out: EC50 (method: IC50)
Procedure, shortened: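 This Z-lyte FRET assay reads the coumarin/fluorescein emission ratio. Compounds were incubated with the reaction mixture for 1 h at room temperature, followed by development reagent for a further 1 h at room temperature, in duplicate.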

GSK3β kinase, sequence (P49841 whole entry): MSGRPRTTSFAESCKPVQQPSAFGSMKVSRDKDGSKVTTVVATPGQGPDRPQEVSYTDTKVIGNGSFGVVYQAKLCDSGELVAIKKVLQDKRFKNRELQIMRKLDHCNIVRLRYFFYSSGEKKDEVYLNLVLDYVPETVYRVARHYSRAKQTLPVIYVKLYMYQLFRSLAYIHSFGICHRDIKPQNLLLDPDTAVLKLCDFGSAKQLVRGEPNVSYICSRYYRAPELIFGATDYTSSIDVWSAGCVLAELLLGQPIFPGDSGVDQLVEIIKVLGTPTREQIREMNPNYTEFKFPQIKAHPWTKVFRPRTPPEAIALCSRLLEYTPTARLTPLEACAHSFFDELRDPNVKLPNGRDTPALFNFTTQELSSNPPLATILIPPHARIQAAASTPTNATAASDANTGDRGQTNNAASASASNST

Work on CC(C)CNC(=O)c1n[nH]c2ccc(-c3cnn(C)c3)cc12 [Compound 2, N-Isobutyl-5-(1-methyl-1H-pyrazol-4-yl)-1H-indazole-3-carboxamide] yielded a pEC50 [1] of 7.12, a pEC50 (IL-6) of 5.52 and a pEC50 [2] of 6.09. For the same compound, the pEC50 [3] was 5.22, the pIC50 (GSK3β kinase) was 7.96 and the pIC50 (DYRK1A kinase) was 7.60.

In the case of Cc1ncc(-c2ccc3[nH]nc(C(=O)NC4CCC(F)(F)CC4)c3c2)n1C [Compound 22, N-(4,4-Difluorocyclohexyl)-5-(1,2-dimethyl-1H-imidazol-5-yl)-1H-indazole-3-carboxamide], the pEC50 [1] was 5.66, the pEC50 (IL-6) was < 5.00 and the inhibition at 10 µM (IL-6) was 10.2%. The pEC50 [2] was 5.70, the pEC50 [3] was < 5.00 and the pIC50 (GSK3β kinase) was 7.21. For the same compound, the pIC50 (DYRK1A kinase) was 7.60.

For Cc1nn(C)cc1-c1ccc2[nH]nc(C(=O)NC3CCC(F)(F)CC3)c2c1 [Compound 21, N-(4,4-Difluorocyclohexyl)-5-(1,3-dimethyl-1H-pyrazol-4-yl)-1H-indazole-3-carboxamide], the pEC50 [1] was 6.53, the pEC50 (IL-6) was < 5.00 and the inhibition at 10 µM (IL-6) was 15.5%. For the same compound, the pEC50 [2] was < 5.00, the pEC50 [3] was < 5.00 and the pIC50 (GSK3β kinase) was 6.04. It also gave a pIC50 (DYRK1A kinase) of 5.74.

O=C(Nc1ccc(OC(F)F)cc1)c1n[nH]c2ccc(-c3cnn(C4CCNCC4)c3)cc12 [Compound 55, N-(4-(Difluoromethoxy)phenyl)-5-(1-(piperidin-4-yl)-1H-pyrazol-4-yl)-1H-indazole-3-carboxamide] gave a pEC50 [1] of 6.63, a pEC50 (IL-6) of 5.41 and a pEC50 [2] of 6.37. The pEC50 [3] was 5.87, the pIC50 (GSK3β kinase) was 5.91 and the pIC50 (DYRK1A kinase) was 7.43.

With CN1CCC(Nc2ccc(NC(=O)c3n[nH]c4cc(F)c(-c5cnn(C)c5)cc34)cc2)CC1 [Compound 83, 6-Fluoro-5-(1-methyl-1H-pyrazol-4-yl)-N-(4-((1-methylpiperidin-4-yl)amino)phenyl)-1H-indazole-3-carboxamide] the pEC50 [1] was 6.60, the pEC50 (IL-6) was 5.91 and the pEC50 [2] was 6.56. For the same compound, the pEC50 [3] was 6.66, the pIC50 (GSK3β kinase) was 7.13 and the pIC50 (DYRK1A kinase) was 8.70.

Cn1cc(-c2ccc3[nH]nc(C(=O)Nc4ccc(CN5CCCC5)cc4)c3c2)cn1 [Compound 68, 5-(1-Methyl-1H-pyrazol-4-yl)-N-(4-(pyrrolidin-1-ylmethyl)phenyl)-1H-indazole-3-carboxamide] was tested, and the pEC50 [1] was 7.13, the pEC50 (IL-6) was < 5.00 and the pEC50 [2] was 6.58. For the same compound, the pEC50 [3] was 6.44, the pIC50 (GSK3β kinase) was 8.22 and the pIC50 (DYRK1A kinase) was 9.00.

CN1CCC(n2cc(-c3cc4c(C(=O)Nc5ccc(OC(F)F)cc5)n[nH]c4cc3F)cn2)CC1 [Compound 59, N-(4-(Difluoromethoxy)phenyl)-6-fluoro-5-(1-(1-methylpiperidin-4-yl)-1H-pyrazol-4-yl)-1H-indazole-3-carboxamide] gave a pEC50 [1] of 5.59, a pEC50 (IL-6) of 5.59 and a pEC50 [2] of 6.26. The pEC50 [3] was 6.49, the pIC50 (GSK3β kinase) was 5.89 and the pIC50 (DYRK1A kinase) was 7.55.

CC(C)CN1CC[C@@H](NC(=O)c2n[nH]c3ccc(-c4cnn(C)c4)cc23)[C@@H](F)C1 [Compound 31, N-((3S,4R)-3-Fluoro-1-isobutylpiperidin-4-yl)-5-(1-methyl-1H-pyrazol-4-yl)-1H-indazole-3-carboxamide] showed a pEC50 [1] of 5.61, a pEC50 (IL-6) of 5.37 and a pEC50 [2] of 6.21. The pEC50 [3] was < 5.00, the pIC50 (GSK3β kinase) was 7.26 and the pIC50 (DYRK1A kinase) was 7.59.

Work on CC(C)(F)CN1CCC(NC(=O)c2n[nH]c3ccc(-c4cn[nH]c4)cc23)CC1 [Compound 36, N-(1-(2-Fluoro-2-methylpropyl)piperidin-4-yl)-5-(1H-pyrazol-4-yl)-1H-indazole-3-carboxamide] yielded a pEC50 [1] of 6.83, a pEC50 (IL-6) of 6.46 and a pEC50 [2] of 6.32. The pEC50 [3] was 6.16, the pIC50 (GSK3β kinase) was 7.64 and the pIC50 (DYRK1A kinase) was 8.15.

Compound O=C(Nc1ccc(OC(F)F)cc1)c1n[nH]c2ccc(-c3cnn(C4CCN(CCF)CC4)c3)cc12 [Compound 60, N-(4-(Difluoromethoxy)phenyl)-5-(1-(1-(2-fluoroethyl)piperidin-4-yl)-1H-pyrazol-4-yl)-1H-indazole-3-carboxamide] has a pEC50 [1] of 5.89, a pEC50 (IL-6) of 5.05 and a pEC50 [2] of 5.41. The pEC50 [3] was 5.43, the pIC50 (GSK3β kinase) was < 5.00 and the pIC50 (DYRK1A kinase) was 5.82.

Compound CN1CCC(n2cc(-c3cc4c(C(=O)Nc5ccc(F)cc5)n[nH]c4cc3F)cn2)CC1 [Compound 51, 6-Fluoro-N-(4-fluorophenyl)-5-(1-(1-methylpiperidin-4-yl)-1H-pyrazol-4-yl)-1H-indazole-3-carboxamide] has a pEC50 [1] of 6.09, a pEC50 (IL-6) of 5.59 and a pEC50 [2] of 6.25. The pEC50 [3] was 6.52, the pIC50 (GSK3β kinase) was 6.25 and the pIC50 (DYRK1A kinase) was 7.80.

In the case of O=C(Nc1ccc(OC(F)F)nc1)c1n[nH]c2ccc(-c3cnn(CCN4CCCC4)c3)cc12 [Compound 89, N-(6-(Difluoromethoxy)pyridin-3-yl)-5-(1-(2-(pyrrolidin-1-yl)ethyl)-1H-pyrazol-4-yl)-1H-indazole-3-carboxamide], the pEC50 [1] was 5.92, the pEC50 (IL-6) was 5.18 and the pEC50 [2] was 5.36. The pEC50 [3] was 5.34, the pIC50 (GSK3β kinase) was 6.18 and the pIC50 (DYRK1A kinase) was 6.52.

CN1CCC(Oc2ccc(NC(=O)c3n[nH]c4cc(F)c(-c5cnn(C)c5)cc34)cn2)CC1 [Compound 96, 6-Fluoro-5-(1-methyl-1H-pyrazol-4-yl)-N-(6-((1-methylpiperidin-4-yl)oxy)pyridin-3-yl)-1H-indazole-3-carboxamide] showed a pEC50 [1] of 6.44, a pEC50 (IL-6) of 5.92 and a pEC50 [2] of 6.78. The pEC50 [3] was 6.93, the pIC50 (GSK3β kinase) was 7.52 and the pIC50 (DYRK1A kinase) was 9.00.

Cn1cc(-c2cc3c(C(=O)Nc4ccc(CN5CCC(F)CC5)cc4)n[nH]c3cc2F)cn1 [Compound 75, 6-Fluoro-N-(4-((4-fluoropiperidin-1-yl)methyl)phenyl)-5-(1-methyl-1H-pyrazol-4-yl)-1H-indazole-3-carboxamide] showed a pEC50 [1] of 6.80, a pEC50 (IL-6) of 5.94 and a pEC50 [2] of 6.27. For the same compound, the pEC50 [3] was 5.96, the pIC50 (GSK3β kinase) was 7.41 and the pIC50 (DYRK1A kinase) was 8.52.

Work on Cc1c(-c2cc3c(C(=O)Nc4ccc(OC5CCN(C)CC5)cc4)n[nH]c3cc2F)cnn1C [Compound 81, 5-(1,5-Dimethyl-1H-pyrazol-4-yl)-6-fluoro-N-(4-((1-methylpiperidin-4-yl)oxy)phenyl)-1H-indazole-3-carboxamide] yielded a pEC50 [1] of 6.47, a pEC50 (IL-6) of 5.97 and a pEC50 [2] of 6.94. For the same compound, the pEC50 [3] was 6.86, the pIC50 (GSK3β kinase) was 7.46 and the pIC50 (DYRK1A kinase) was 9.00.

For CN1CCC(Oc2ccc(NC(=O)c3n[nH]c4cc(F)c(-c5cnn(C)c5)cc34)cc2)CC1 [Compound 79, 6-Fluoro-5-(1-methyl-1H-pyrazol-4-yl)-N-(4-((1-methylpiperidin-4-yl)oxy)phenyl)-1H-indazole-3-carboxamide], the pEC50 [1] was 7.21, the pEC50 (IL-6) was 5.76 and the pEC50 [2] was 6.58. For the same compound, the pEC50 [3] was 6.85, the pIC50 (GSK3β kinase) was 7.22 and the pIC50 (DYRK1A kinase) was 8.70.

In the case of CN1CCN(Cc2ccc(NC(=O)c3n[nH]c4cc(F)c(-c5cnn(C)c5)cc34)cc2)CC1 [Compound 78, 6-Fluoro-5-(1-methyl-1H-pyrazol-4-yl)-N-(4-((4-methylpiperazin-1-yl)methyl)phenyl)-1H-indazole-3-carboxamide], the pEC50 [1] was 6.26, the pEC50 (IL-6) was 5.94 and the pEC50 [2] was 6.60. The pEC50 [3] was 6.34, the pIC50 (GSK3β kinase) was 7.74 and the pIC50 (DYRK1A kinase) was 9.00.

With Cn1cc(-c2ccc3[nH]nc(C(=O)N[C@H]4CC[C@H](CN5CCCC5)CC4)c3c2)cn1 [Compound 28, 5-(1-Methyl-1H-pyrazol-4-yl)-N-((1R,4R)-4-(pyrrolidin-1-ylmethyl)cyclohexyl)-1H-indazole-3-carboxamide] the pEC50 [1] was 6.39, the pEC50 (IL-6) was 6.40 and the pEC50 [2] was 6.16. For the same compound, the pEC50 [3] was 6.35, the pIC50 (GSK3β kinase) was 7.96 and the pIC50 (DYRK1A kinase) was 8.70.

CC(C)(F)CN1CCC(NC(=O)c2n[nH]c3ccc(-c4cnn(C5CC5)c4)cc23)CC1 [Compound 40, 5-(1-Cyclopropyl-1H-pyrazol-4-yl)-N-(1-(2-fluoro-2-methylpropyl)piperidin-4-yl)-1H-indazole-3-carboxamide] showed a pEC50 [1] of 7.17, a pEC50 (IL-6) of 5.71 and a pEC50 [2] of 5.77. The pEC50 [3] was 5.97, the pIC50 (GSK3β kinase) was 6.16 and the pIC50 (DYRK1A kinase) was 7.35.
